Test results from the supplement of paper PMC10307832.

Assays:
Experiment in all cases: relative viability (nuclei count vs DMSO), 5 days (fraction); higher = more cells survive
XMD13-2 + OSI-027 = compound: C1CC1C(=O)NC2=NNC3=C2C=CC(=C3)C4=CC(=CC=C4)C(=O)NC5CC5 [XMD13-2] + COc1cccc2cc(-c3nc([C@H]4CC[C@H](C(=O)O)CC4)n4ncnc(N)c34)[nH]c12 [OSI-027] (partner 0.5 µM)
How it was run: (§1)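 The day after seeding in 1536-well plates, lung cancer cell lines were treated by pin tool with a single drug, or with a fixed anchor-drug dose together with five library-drug doses (not always all listed) in √10 steps. After 5 days, a combined fix-and-stain solution (final 0.05% Triton X-100, 1% formaldehyde, 1 ug/ml Hoechst) was added. Nuclei counted on 4× images gave relative viability as treated counts over vehicle counts, reported as the median of duplicate plates.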

ALW-II-49-7 + Dasatinib = compound: Cc1ccc(C(=O)Nc2cccc(C(F)(F)F)c2)cc1Nc1cncc(C(N)=O)c1 [ALW-II-49-7] + Cc1nc(Nc2ncc(C(=O)Nc3c(C)cccc3Cl)s2)cc(N2CCN(CCO)CC2)n1 [Dasatinib] (partner 0.075 µM)
How it was run: as §1

Dasatinib + Palbociclib = compound: Cc1nc(Nc2ncc(C(=O)Nc3c(C)cccc3Cl)s2)cc(N2CCN(CCO)CC2)n1 [Dasatinib] + CC(=O)c1c(C)c2cnc(Nc3ccc(N4CCNCC4)cn3)nc2n(C2CCCC2)c1=O [Palbociclib] (partner 0.5 µM)
How it was run: as §1

ALW-II-49-7 + Luminespib = compound: Cc1ccc(C(=O)Nc2cccc(C(F)(F)F)c2)cc1Nc1cncc(C(N)=O)c1 [ALW-II-49-7] + CCNC(=O)c1noc(-c2cc(C(C)C)c(O)cc2O)c1-c1ccc(CN2CCOCC2)cc1 [Luminespib] (partner 0.01 µM)
How it was run: as §1

Cell Line | relative viability (XMD13-2 + OSI-027; first compound 0.05 µM) | relative viability (XMD13-2 + OSI-027; first compound 0.1581 µM) | relative viability (XMD13-2 + OSI-027; first compound 0.5 µM) | relative viability (XMD13-2 + OSI-027; first compound 1.581 µM) | relative viability (XMD13-2 + OSI-027; first compound 5 µM) | relative viability (ALW-II-49-7 + Dasatinib; first compound 0.08 µM) | relative viability (ALW-II-49-7 + Dasatinib; first compound 0.253 µM) | relative viability (ALW-II-49-7 + Dasatinib; first compound 0.8 µM) | relative viability (ALW-II-49-7 + Dasatinib; first compound 2.53 µM) | relative viability (ALW-II-49-7 + Dasatinib; first compound 8 µM) | relative viability (Dasatinib + Palbociclib; first compound 0.005 µM) | relative viability (Dasatinib + Palbociclib; first compound 0.01581 µM) | relative viability (Dasatinib + Palbociclib; first compound 0.05 µM) | relative viability (Dasatinib + Palbociclib; first compound 0.1581 µM) | relative viability (Dasatinib + Palbociclib; first compound 0.5 µM) | relative viability (ALW-II-49-7 + Luminespib; first compound 0.253 µM) | relative viability (ALW-II-49-7 + Luminespib; first compound 0.8 µM) | relative viability (ALW-II-49-7 + Luminespib; first compound 2.53 µM) | relative viability (ALW-II-49-7 + Luminespib; first compound 8 µM) | relative viability (ALW-II-49-7 + Luminespib; first compound 0.08 µM)
NCI-H1792 | 0.772 | 0.813 | 0.696 | 0.914 | 0.669 | 0.896 | 0.757 | 0.876 | 0.355 | 0.732 | 0.685 | 0.639 | 0.566 | 0.429 | 0.271 | 0.383 | 0.276 | 0.293 | 0.349 | –
COR-L 105 | 0.83 | 0.658 | 0.668 | 0.66 | 0.707 | 0.304 | 0.308 | 0.326 | 0.272 | 0.329 | 0.429 | 0.363 | 0.368 | 0.371 | 0.275 | 0.646 | 0.845 | 0.72 | 0.879 | 0.745
LU99A | 0.312 | 0.273 | 0.264 | 0.302 | 0.29 | 0.62 | 0.486 | 0.576 | 0.498 | 0.75 | 0.354 | 0.379 | 0.379 | 0.308 | 0.2 | 0.212 | 0.194 | 0.217 | 0.288 | 0.253
H3255 | 0.705 | 0.536 | 0.589 | 0.564 | 0.549 | 0.436 | 0.234 | 0.431 | 0.322 | 0.348 | 0.312 | 0.333 | 0.329 | 0.317 | 0.274 | 0.851 | 0.972 | 0.876 | 0.648 | 1.02
NCI-H1734 | 0.683 | 0.554 | 0.647 | 0.502 | 0.447 | 0.483 | 0.414 | 0.485 | 0.463 | 0.332 | 0.328 | 0.285 | 0.295 | 0.208 | 0.2 | 0.177 | 0.169 | 0.181 | 0.186 | 0.209
NCI-H1623 | 0.417 | 0.43 | 0.408 | 0.363 | 0.462 | 0.465 | 0.531 | 0.618 | 0.532 | 0.479 | – | – | – | – | – | 0.428 | 0.431 | 0.561 | 0.698 | 0.518
HCC-366 | 1.02 | 0.598 | 1.15 | 0.888 | 0.983 | 0.694 | 0.75 | 0.591 | 0.528 | 0.7 | 0.412 | 0.185 | 0.173 | 0.114 | 0.0885 | – | – | – | – | –
HCC-78 | 0.432 | 0.394 | 0.317 | 0.38 | 0.345 | 0.475 | 0.466 | – | 0.361 | 0.383 | 0.459 | 0.429 | 0.443 | 0.382 | 0.239 | – | – | – | – | –
NCI-H1563 | 0.811 | 0.731 | 0.74 | 0.788 | 0.751 | 0.442 | 0.466 | 0.441 | 0.477 | 0.486 | – | – | – | – | – | 0.487 | 0.503 | 0.495 | 0.457 | 0.531
